Results on one compound are retold here after US9012500B2, “PKC-ε activator” (Nishizaki Bioinformation Research Institute, priority 2010, dated 2015).

Experiment [1] relates to PKC activity of rat PC-12 cells. Kind of experiment: Intracellular PKC assay in PC-12 cells. It is filed as cell-based. On the procedure: According to the method described in a publication [Kanno T et al., J Lipid Res 47 (6):1146-1156, 2006], the PKC activity of rat PC-12 cells was assayed. The cells were treated with each DCP-LA optical isomer at 37° C. for 10 min. The treatment was performed in an extracellular solution [137 mM NaCl, 5.4 mM KCl, 10 mM MgCl2, 5 mM ethyleneglycol-bis(2-aminoethylether)-N,N,N′,N′-tetraacetic acid (EGTA), 0.3 mM Na2HPO4, 0.4 mM K2HPO4 and 20 mM 4-(2-hydroxyethyl)-1-piperazin-ethanesulfonic acid, pH 7.2]. Then, the cells were rinsed with 100 μl of phosphate-buffered saline (PBS) in the absence of Ca^2+, and incubated in an extracellular solution (50 μl) containing 50 μg/ml digitonin, 25 mM glycerol 2-phosphate, 200 μM ATP and 100 μM synthetic PKC substrate peptide (Pyr-Lys-Arg-Pro-Ser-Gln-Arg-Ser-Lys-Tyr-Leu (SEQ ID NO: 1); MW, 1,374; Pyr: […]) at 37° C. for 15 min. […] A substrate peptide peak and a new resultant product peak were detected at the absorbance of 214 nm (SPD-10Avp UV-VIS detector, Shimadzu Co., Kyoto, Japan). […] The molecular weight was calculated from the two standard spectra of bradykinin (MW 1060.2) and substance P (MW 1672.9).
The areas of the non-phosphorylated and phosphorylated substrate peptides were measured (total area corresponds to the concentration of PKC substrate peptide used). […]

The subject of experiment [2] is glutamic acid release from the hippocampus. Kind of experiment: Glutamic acid release from rat hippocampus sections (HPLC). The experiment is classed as cell-based.
A further experiment concerns the target T1, PKC-ε (Homo sapiens, UniProt Q02156).
T1 sequence (Q02156 1-737): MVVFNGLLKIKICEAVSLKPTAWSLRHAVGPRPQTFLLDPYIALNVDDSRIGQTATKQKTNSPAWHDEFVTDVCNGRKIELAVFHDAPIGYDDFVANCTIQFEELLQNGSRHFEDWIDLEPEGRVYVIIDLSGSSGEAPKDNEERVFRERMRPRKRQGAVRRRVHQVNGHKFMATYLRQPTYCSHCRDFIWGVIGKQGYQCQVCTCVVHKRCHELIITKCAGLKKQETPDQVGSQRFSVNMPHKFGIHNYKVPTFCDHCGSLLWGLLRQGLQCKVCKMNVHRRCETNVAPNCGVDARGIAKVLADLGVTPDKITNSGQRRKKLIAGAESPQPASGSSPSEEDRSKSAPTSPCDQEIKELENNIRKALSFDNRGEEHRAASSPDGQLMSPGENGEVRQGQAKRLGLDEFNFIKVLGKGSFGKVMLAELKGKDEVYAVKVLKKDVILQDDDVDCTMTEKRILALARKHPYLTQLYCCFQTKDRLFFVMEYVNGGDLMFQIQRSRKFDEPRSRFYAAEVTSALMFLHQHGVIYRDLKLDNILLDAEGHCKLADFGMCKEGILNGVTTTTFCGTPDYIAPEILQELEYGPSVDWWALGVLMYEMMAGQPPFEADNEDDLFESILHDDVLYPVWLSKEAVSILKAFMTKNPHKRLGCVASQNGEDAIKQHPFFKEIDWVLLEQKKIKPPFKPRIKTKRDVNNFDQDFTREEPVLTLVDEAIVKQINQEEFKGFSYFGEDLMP
Kind of experiment: PKC assay in cell-free system with PKC isozymes. The experiment is classed as biochemical. On the procedure: The PKC activity in a cell-free system was quantified by the method described in a publication [Kanno T et al., J Lipid Res 47 (6):1146-1156, 2006]. The summary is as described below.
Synthetic PKC substrate peptide (10 μM) was reacted with various PKC isozymes in a medium containing 20 mM Tris-HCl (pH 7.5), 5 mM Mg-acetate, 10 μM ATP and each DCP-LA optical isomer (10 μM) in the absence of phosphatidylserine and diacylglycerol at 30° C. for 5 min. When the activity with new types of PKC (PKC-δ, -ε, -η and -μ) was to be measured, a medium free of Ca^2+ was used and when the activity with other PKC isozyme was to be measured, a medium containing 100 μM Ca^2+ was used. After loading on reversed-phase HPLC (LC-10ATvp, Shimadzu Co., Kyoto, Japan), a substrate peptide peak and a new resultant product peak were detected at the absorbance of 214 nm. The areas of the non-phosphorylated and phosphorylated substrate peptides m were measured (total area corresponds to the concentration of PKC substrate peptide used), and the amount of phosphorylated substrate peptide was calculated. The phosphorylated substrate peptide level (pmol/l min) was used as an index of PKC activity.

For experiment [3], the system named is serotonin release from the hypothalamus. Kind of experiment: Serotonin release from rat hypothalamus sections (HPLC). The experiment is classed as cell-based.
Experiment [4] deals with dopamine release from the striatum. Kind of experiment: Dopamine release from rat striatum sections (HPLC). It is filed as cell-based.

As to `CCCCC[C@@H]1C[C@@H]1C[C@@H]1C[C@H]1CCCCCCCC(=O)O` [α,β-DCP-LA, 8-[(1R,2S)-2-{(1R,2R)-2-pentylcyclopropylmethyl}-cyclopropyl]octanoic acid], the “PKC activation action on PC-12 cells compared to the other optical isomers” value in experiment [1] (100 nM, 37° C., 10 min, FIG. 1) is recorded as “most strongly”. Further, the “concentration at which the PKC activation action reaches maximum (bell-shaped)” value in experiment [1] (PC-12 cells, FIG. 2) is “about 100 nM”; on PKC-ε (cell-free system, FIG. 5), “about 25 μM”. In addition, in experiment [2] (100 nM, in the presence of nicotine (1 μM), FIG. 7), the “glutamic acid release stimulation action compared to the other optical isomers” value is recorded as “remarkably high”. Further, in experiment [2] (rat hippocampus sections, FIG. 8), the “concentration at which glutamic acid release stimulation action reaches maximum (bell-shaped)” value is listed as “about 100 nM”. Besides, the “glutamic acid release, substance alone vs non-treated group” value in experiment [2] (treated alone, FIG. 9) is on record as “did not show a remarkable difference”. Also, the “effect on glutamic acid release caused by nicotine” value in experiment [2] (with nicotine (1 μM), FIG. 9) is recorded as “remarkably enhanced”. Moreover, the “activation of PKC isozymes in cell-free system (selectivity)” value at PKC-ε (10 μM, absence of phosphatidylserine and diacylglycerol, FIG. 4) is “selective and direct activation of PKC-ε”. Also, the “PKC-ε activation action compared to the other optical isomers” value on PKC-ε (cell-free system, 10 μM, FIG. 6) is “highest ability”. Further, the “serotonin release stimulation action compared to the other optical isomers” value in experiment [3] (100 nM, in the presence of nicotine (1 μM), FIG. 13) is recorded as “remarkably high”. For the same compound, in experiment [3] (rat hypothalamus sections, FIG. 14), the “concentration at which serotonin release stimulation action reaches maximum (bell-shaped)” value was “about 100 nM”. Moreover, the “serotonin release, substance alone vs non-treated group” value in experiment [3] (treated alone, FIG. 15) is on record as “did not show a remarkable difference”. Moreover, the “effect on serotonin release caused by nicotine” value in experiment [3] (with nicotine (1 μM), FIG. 15) is “remarkably enhanced”. Also, in experiment [4] (100 nM, in the presence of nicotine (1 μM), FIG. 10), the “dopamine release stimulation action compared to the other optical isomers” value is given as “remarkably high”. Moreover, in experiment [4] (rat striatum sections, FIG. 11), the “concentration at which dopamine release stimulation action reaches maximum (bell-shaped)” value was “about 250 nM”. In experiment [4] (treated alone, FIG. 12), the “dopamine release, substance alone vs non-treated group” value is on record as “did not show a remarkable difference”. In addition, the “effect on dopamine release caused by nicotine” value in experiment [4] (with nicotine (1 μM), FIG. 12) was “remarkably enhanced”.
